Where a chain is given by its changes, count along the chain named.
Experiments:
rat Kv2.1 [1] = biological target: T1, rat Kv2.1 (Rattus norvegicus, UniProt P15387, Y380R); experiment: whole-cell patch clamp, Hill fit of concentration-response; type: cell-based
T1 construct: gene Kcnb1; rat Kv2.1 subcloned in pEYFP-N1 (XhoI/EcoRI); homotetramer
T1 sequence (P15387 1-857 Y380R): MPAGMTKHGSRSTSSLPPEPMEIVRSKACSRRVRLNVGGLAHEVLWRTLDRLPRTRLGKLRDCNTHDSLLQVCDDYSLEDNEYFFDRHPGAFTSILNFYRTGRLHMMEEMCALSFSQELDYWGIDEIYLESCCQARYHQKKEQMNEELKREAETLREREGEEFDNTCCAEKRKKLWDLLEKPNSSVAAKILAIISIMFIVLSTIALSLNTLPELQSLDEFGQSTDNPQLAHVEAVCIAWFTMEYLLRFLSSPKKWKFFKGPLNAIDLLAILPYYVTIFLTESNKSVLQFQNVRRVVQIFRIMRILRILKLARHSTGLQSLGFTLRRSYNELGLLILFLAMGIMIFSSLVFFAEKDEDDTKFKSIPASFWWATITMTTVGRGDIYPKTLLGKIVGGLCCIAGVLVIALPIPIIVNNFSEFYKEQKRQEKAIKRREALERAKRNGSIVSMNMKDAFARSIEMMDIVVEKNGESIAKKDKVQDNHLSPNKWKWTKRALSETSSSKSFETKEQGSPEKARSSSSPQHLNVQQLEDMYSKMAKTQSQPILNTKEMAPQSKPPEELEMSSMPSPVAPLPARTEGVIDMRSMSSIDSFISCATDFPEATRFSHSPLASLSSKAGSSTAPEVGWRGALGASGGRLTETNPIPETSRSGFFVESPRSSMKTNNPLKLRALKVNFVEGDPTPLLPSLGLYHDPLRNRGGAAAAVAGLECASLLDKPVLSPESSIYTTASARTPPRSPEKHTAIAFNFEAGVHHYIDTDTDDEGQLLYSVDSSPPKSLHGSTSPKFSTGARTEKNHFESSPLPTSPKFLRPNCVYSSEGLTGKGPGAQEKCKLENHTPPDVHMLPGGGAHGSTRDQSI

rat Kv2.1 [2] = biological target: T2, rat Kv2.1 (Rattus norvegicus, UniProt P15387); experiment: as above; type: cell-based
T2 construct: gene Kcnb1; rat Kv2.1 subcloned in pEYFP-N1 (XhoI/EcoRI); homotetramer
T2 sequence (P15387 1-857): T1 sequence (P15387 1-857 Y380R) with R380Y

SMILES: COC(=O)C1=C(C)NC(C)=C(C(=O)OC)C1c1ccccc1[N+](=O)[O-] [nifedipine]
- IC50 (rat Kv2.1 [1]): 15.2 ± 1.3 µM
- IC50 (rat Kv2.1 [2]): 37.5 ± 5.7 µM
